Assay results from patent US10085955B2, “Methods and compositions for treatment of demyelinating diseases” (Pathologica LLC, priority 2013, dated 2018).
“Also recorded” adds a separate entry of the source. Marks after values point to notes of the source that are not given here.

Tests used:
CNS-infiltrating cells = experiment: Fourth MOG EAE protocol, flow cytometric analysis of CNS-infiltrating cells at onset and peak; format: in vivo, C57BL/6 mice
Protocol: A fourth EAE experiment was run similarly to the above, but was designed to examine the effect of MGBG on cell populations during onset and peak disease. In this protocol, there were 3 experimental groups with 20 mice/group and 1 mock-immunized group with 8 mice. Fingolimod was dosed at 1 mpk QD, MGBG at 30 mpk BID, and the pertussis toxin was administered at 165 ng/dose for both injections. Flow cytometric analysis was performed on CNS-infiltrating cells from 16 mice from each of the vehicle-, fingolimod- and MGBG-treated groups, as well as from all mice in the mock-immunized group. Half of the analyzed mice from each group were collected at the time of EAE onset in the vehicle group and half were collected at the time of EAE peak in the vehicle group. Mouse termination was over eight separate days, because individual mouse in the vehicle group reached EAE onset and EAE peak on different days. Eight (8) of the mice in the vehicle group were sacrificed at each time-point. For each of these mice, a matching mouse from each of Groups 2 and 3 was sacrificed on the same day. For each two (2) of these vehicle group mice, a matching mouse from Group 4 was sacrificed. When selecting matching mice from other groups for termination, the mouse with the highest EAE score was chosen. If no mouse in the group had signs of EAE, a mouse was chosen at random.

[1] = tested on: MOG-induced experimental autoimmune encephalomyelitis (EAE); experiment: Second MOG EAE protocol, clinical readouts; format: in vivo, C57BL/6 mice; details: second study; MGBG 30 mpk BID, fingolimod 1 mpk QD
From the text: An experimental murine model of multiple sclerosis employing a myelin oligodendrocyte glycoprotein (MOG) peptide to induce experimental autoimmune encephalomyelitis (EAE) was employed to determine the efficacy of MGBG in preventing and treating that disease. Because of its many similarities to MS, EAE is commonly used to study pathogenesis of autoimmunity, CNS inflammation, demyelination, cell trafficking, and tolerance induction. EAE is characterized by paralysis (in some models the paralysis is remitting-relapsing), CNS inflammation and demyelination. EAE is mediated primarily by dendritic cells, myelin-specific T cells (e.g. Th1 and Th17), and M1 macrophages. B cells may also play a role in some models of EAE. Body weight also tracks disease progression. EAE is induced in C57BL/6 mice by immunization with MOG35-55 or MOG1-125 in CFA emulsion followed by administration of pertussis toxin (PTX) in PBS. The emulsion provides antigen which initiates expansion and differentiation of MOG-specific autoimmune T cells. PTX enhances EAE development by providing additional adjuvant and facilitating entrance of autoimmune T cells into the CNS. […]
Clinically, EAE progression is scored on a scale of 0 to 5, wherein each score represents the following clinical observations: […]

in vivo = experiment: in vivo; parameters: species or system Sprague Dawley rats; details: rat
Protocol: Eighteen male Sprague Dawley rats (Charles River) weighing 217-263 g and aged 8-9 weeks were administered the test article, MGBG as either a single bolus intravenous dose of 1 mg/kg (Group 1) or as a single oral gavage dose of 10 mg/kg. A cohort of three animals was sacrificed via CO2 inhalation anesthesia after final blood collection at each of T=2, 4, 12, 24, 36, and 48 hours post-dose. Dose formulation analysis verified administered dose solutions as within 17% of targeted concentration of 10 mg/kg.
Analysis was performed by LC/MS/MS. Pharmacokinetic analyses were performed on the mean MGBG plasma concentration versus time data using the non-compartmental approach (linear trapezoidal rule for AUC calculations). The WinNonlin sparse sampling tool was used for PK calculations. All samples reported as BLQ (Below the Limit of Quantitation, in plasma 2.50 ng/mL) were changed to 0.00 ng/mL for the purpose of analysis.
Additionally, in rats dosed as above with single oral administration of MGBG at 10 mg/kg, immediately following the plasma sample collection for each cohort (i.e., 2, 4, 12, 24, 36, and 48 hours after dosing), three rats were sacrificed, and spleen and liver tissues collected and flask frozen. […] This is consistent with a selective uptake mechanism for MGBG. Without wishing to be bound by theory, other SAMDC inhibitors which are selectively uptaken by cells may, like MGBG, be useful in the methods and compositions disclosed herein.

[2] = male, Sprague Dawley, iv, 1 mg/kg
[3] = male, Sprague Dawley, po, 10 mg/kg

## CC(/C=N/NC(=N)N)=N\NC(=N)N [MGBG, 1,1′ [methylethanediylidene]dinitrilodiguanidine]
CNS-infiltrating cells; Onset
  CD4+ IFNy+: 3.19 +/− # cells (10^3)
  CD4+ IFNγ+: 9.57 % cells
  CD4+ IL-17A+ IFNy+: 1.56 +/− # cells (10^3)
  CD4+ IL-17A+ IFNγ+: 4.14 % cells
CNS-infiltrating cells; Peak
  CD4+ IFNy+: 4.57 +/− # cells (10^3)
  CD4+ IFNγ+: 9.37 % cells
  CD4+ IL-17A+ IFNy+: 3.01 +/− # cells (10^3)
  CD4+ IL-17A+ IFNγ+: 5.45 % cells
CNS-infiltrating cells; fourth study, MGBG 30 mpk BID
  CNS infiltration by proinflammatory cells: reduced
CNS-infiltrating cells; fourth study, MGBG 30 mpk BID vs fingolimod 1 mpk QD
  proportion and number of infiltrating dendritic cells: reduced in MGBG-treated mice more than in fingolimod-treated mice
CNS-infiltrating cells; subset of animals which did not develop disease when vehicle-treated animals were at peak
  CD11c+ of CD4− CD45.2+ high cells In Peak of Disease in Animals Without EAE Disease: 2.93 +/− 0.37
[1]
  EAE disease development / severity: suppressed EAE comparably to 1 mpk fingolimod; also recorded: substantially reduced disease compared to that of the vehicle group; also recorded: efficacious at postponing disease onset and reducing EAE severity
In vivo; [2]
  Clobs: 13.4 mL/min/kg
  VSSobs: 15.4 L/kg
In vivo; [3]
  Clobs: 3.18 mL/min/kg
  Vd: 15.4 L/kg
  time point through which MGBG levels were measurable in plasma: 12 h
In vivo; male, Sprague Dawley, po, 10 mg/kg, greater exposure (AUCall) of liver tissue compared to plasma
  Kp: 160
In vivo; male, Sprague Dawley, po, 10 mg/kg, greater exposure (AUCall) of spleen tissue compared to plasma
  Kp: 9.3
In vivo; male, Sprague Dawley, po, 10 mg/kg, greater exposure (Cmax) of liver tissue compared to plasma
  Kp: 120
In vivo; male, Sprague Dawley, po, 10 mg/kg, greater exposure (Cmax) of spleen tissue compared to plasma
  Kp: 4
In vivo
  clinical findings after dosing: Abnormal clinical findings were not noted
